# Tested on: Aorta
# Assay: Vasorelaxation activity against phenylephrine-stimulated contraction in Wistar rat thoracic aorta at 30 uM
# Assay type: functional
# Design: scale not given: the % may be the effect or the level left
row,Compound,Activity
1,"COC(=O)[C@@]1(c2cc3ccccc3[nH]2)COCC=C2CN(C)CC[C@@H]21 [6,7-SECO-ANGUSTILOBINE B]",7%
2,COC(=O)[C@]1(CO)c2[nH]c3ccccc3c2[C@@H](C)[C@]2(O)CNCC[C@@H]21 [ALSTILOBANINE A],44.3%
3,COC(=O)[C@@]12COCC[C@H]3[C@@H]1CC[N@@+](C)([O-])[C@H]3c1c2[nH]c2ccccc12 [ALSTILOBANINE B],21.2%
4,COC(=O)[C@@]12COCC[C@@H]3[C@@H](NCC[C@@H]31)c1c2[nH]c2ccccc12 [ALSTILOBANINE C],28%
5,COC(=O)[C@@]1(c2cc3ccccc3[nH]2)COCC=C2C[N@+](C)([O-])CC[C@@H]21 [ALSTILOBANINE D],10%
6,COC(=O)[C@@]12COC[C@H](c3c1[nH]c1ccccc31)[C@]1(O)CNCC[C@@H]12 [ALSTILOBANINE E],6.8%
7,O=C(O)[C@@]12COCC=C3CN(CC[C@@H]31)Cc1c2[nH]c2ccccc12 [ALSTONAMIC ACID],35%
8,COC(=O)[C@]12COCC[C@@H]3[C@H](c4c1[nH]c1ccccc41)N(C)CC[C@@H]32 [UNDULIFOLINE],33.3%

# — ChEMBL document CHEMBL1157457, “Alstilobanines A-E, new indole alkaloids from Alstonia angustiloba” (2008)
